Experimental data published in patent US11035008B2, “Biomarkers for cancer” (BERGENBIO ASA, priority 2015, dated 2021).

Tests used:
totErk = assay: Total Erk in AML cell panel, long-term treatment, flow cytometry; assay type: cell-based, human
Procedure: (§1) Staining of Cells for Flow Cytometry, General Protocol: • Live cells were centrifuged at 300 G for 5 minutes, washed once with PBS and centrifuged again. Cells were then fixed in 4% PFA in PBS for 10 minutes at 37° C., and resuspended in PBS. Unless processed immediately, samples were at this point stored in PBS at 4° C. (up to three weeks) or at −80° C. (for long-term storage). If intracellular epitopes were stained, cells were permebealized in 90% MeOH for 30 minutes on ice. Unless processed immediately, samples were also be stored in 90% MeOH at −20° C. for up to two months. • Further staining procedure (permebealized or non-permebealized cells): • Cells were washed 1× in PBS and blocked in blocking buffer; either PBS+0.5% BSA or PBS+1:1000 Octagam (5 mg/ml) for 15 minutes at room temperature. Thereafter, cells were incubated with primary AB at the indicated dilutions in incubation buffer (IB, PBS+0.5% BSA) for 1 hour at room temperature. Cells were then washed 3× with IB and incubated with secondary AB (conjugated to a fluorescent flurophore) at 1:1000 dilution in IB for 30 minutes at room temperature. Finally, cells were washed 3× in IB and resuspended in PBS. Cells were analyzed immediately, or stored for up to 24 hours at 4° C. before analysis. • Analysis of cells was done on a BD LSR Fortessa or a BD C6 Accuri flow cytometer, and further processing was done using FlowJo v.7.6. • All incubation steps (but not storage) were done on a spinning wheel or gentle shaker.
(§2) The diversity of AML cells and their responses was investigated using a panel of AML cell lines and assessing their responses after BGB324-treatment.
(§3) Long-term treatment was done in complete medium, without starvation. The responders were treated with 0.05, 0.1 or 0.3 μM BGB324, whereas the non-responders were treated with only a single dose of 2.5 μM BGB324. The cells were fixed after 24, 48 or 72 hours, and the samples were stored in 90% MeOH at −20° C. until all samples were harvested, and stained for flow at the same time.

Kasumi cells = assay: IC50 of BGB324 by resazurin assay, Kasumi; assay type: cell-based; details: Homo sapiens, Kasumi (non-responder)
From the text: as §2

pPLCγ1 = pPLCγ1 in AML cell panel, short term treatment, flow cytometry; assay type: cell-based, human
Procedure: as §1, §2
(§4) When investigating phospho-markers, the cells were starved overnight in the appropriate growth medium containing 0.1% FBS, pre-treated with BGB324 at 0.5 and 1 μM for one hour, and stimulated with 10% FBS for 20 minutes (to induce phosphorylation, with BGB324 present). Cells were then fixed and stained for flow cytometric analyses.

SLFN11 = assay: Microarray analysis of xenograft material, SLFN11 transcript; assay type: in vivo, mice
From the text: Slfn11 was included in the biomarker panel following microarray analysis of Mv4-11 and MOLM13 xenograft material after BGB324-treatment.

totAxl = assay: Total Axl in AML cell panel, long-term treatment, flow cytometry; assay type: cell-based, human
Procedure: as §1, §2, §3

Axl(Y779) = assay: pAxl(Y779) in blood of healthy volunteers treated ex vivo; assay type: cell-based, human; details: blood of two healthy volunteers, 1 μM, 30 minutes ex vivo
Procedure: Staining of Blood for Flow Cytometry, General Protocol: • Human blood from healthy donors was collected in the presence of sodium citrate and mixed with 20 volumes of pre-warmed BD phosflow lyse/fix buffer (diluted to 1× in destilled water), followed by incubation in 37° C. water bath for 10 minutes. Cells were spun at 500 g for 8 minutes and washed once with PBS. • Cells were permebilized by adding 70% MeOH followed by 30 min incubation on ice. Unless processed immediately, samples were at this point stored in MeOH at −20° C. for up to 4 weeks. • Staining of permeabilized cells: • Cells were spun at 600 g, washed twice and resuspended in IB. Cells were aliquoted into volums corresponding to 100 ul collected blood (before dilution), and stained as described above (section two in “Staining of cells for flow cytometry, general protocol”). • All washing and incubation steps were done on a spinning wheel or gentle shaker.
Blood samples from BGB324-treated individuals were not available, so BGB324-treatment was simulated by incubating fresh unfixed blood samples with 1 μM BGB324 for 30 minutes before fixation. Thereafter, samples were fixed, permebealized, and stained for flow with pAxl and pAkt antibodies to examine whether we could see a response to BGB324-treatment in these biomarkers (see FIG. 7). Phosphatase-treated cells were included as a negative staining control. […]

MOLM13 cells = assay: IC50 of BGB324 by resazurin assay, MOLM13; assay type: cell-based; details: Homo sapiens, MOLM-13, MOLM13 (responder)
From the text: as §2

pAkt (S473) = assay: pAkt(S473) in AML cell panel, short term treatment, flow cytometry; assay type: cell-based, human; details: 1 hour
Procedure: as §1, §2, §4

totSLFN11 = assay: Total SLFN11 in AML cell panel, long-term treatment, flow cytometry; assay type: cell-based, human
Procedure: as §1, §2, §3

OCI-M1 cells = assay: IC50 of BGB324 by resazurin assay, OCI-M1; assay type: cell-based; details: Homo sapiens, OCI-M1 (non-responder)
From the text: as §2

[1] = Mv4-11, 0.3 μM, 24, 48 and 72 hours

SMILES: Nc1nc(Nc2ccc3c(c2)CC[C@@H](N2CCCC2)CC3)nn1-c1cc2c(nn1)-c1ccccc1CCC2 [BGB324, 1-(6,7-dihydro-5H-benzo[6,7]cyclohepta[1,2-c]pyridazin-3-yl)-N3-((7-(S)-pyrrolidin-1-yl)-6,7,8,9-tetrahydro-5H-benzo[7]annulene-2-yl)-1H-1,2,4-triazole-3,5-diamine]
- Erk expression (totErk; Kasumi, 2.5 μM, significant at 48 and 72 hours): reduction of Erk expression
- Erk expression (totErk; MOLM13, 0.3 μM, 48 and 72 hours): normalized to control-levels
- Erk expression (totErk; MOLM13, 0.3 μM, 24 hours): slight, but significant, reduction of Erk expression
- Erk expression (totErk; [1]): gradual reduction of Erk expression
- Erk expression (totErk; Mv4-11, 0.3 μM, 48 and 72 hours): significantly lower than control cells
- Erk expression (totErk; OCI-AML5, 2.5 μM, significant at 24 and 48 hours): reduction of Erk expression
- IC50 (Kasumi cells): 1200 nM
- pPLCγ (pPLCγ1; Kasumi, 1 hour): No response in PLCγ
- pPLCγ (pPLCγ1; MOLM13, all treatment doses, 1 hour): significantly reduced
- pPLCγ (pPLCγ1; Mv4-11, all treatment doses, 1 hour): significantly reduced
- pPLCγ (pPLCγ1; OCI-M1, 1 hour): No response in PLCγ
- SLFN11 transcript (microarray) (SLFN11; MOLM13 systemic xenograft model): not significantly reduced
- SLFN11 transcript (microarray) (SLFN11; Mv4-11 subcutaneous xenograft, 14 days of treatment): one of the most significantly downregulated transcripts
- SLFN11 transcript (microarray) (SLFN11; Mv4-11 xenograft, single dose 100 mg/kg, 24 hours after treatment): significantly downregulated
- Axl expression (totAxl; Kasumi, 2.5 μM, 24-72 hours): goes significantly up
- Axl expression (totAxl; MOLM13, 0.3 μM, 24 hours): slight and significant reduction of Axl
- Axl expression (totAxl; Mv4-11, 0.3 μM, 24 hours and 72 hours): slight and significant reduction of Axl
- Axl expression (totAxl; OCI-AML5, 2.5 μM, 24-72 hours): goes significantly up
- reduction of pAxl(Y779) (Axl(Y779); gated Axl-positive cells): ~20%
- reduction of pAxl (Axl(Y779); whole live cell population): around 20%
- IC50 (MOLM13 cells): 450 nM
- Akt phosphorylation (pAkt (S473); Kasumi, 0.5 and 1 μM): close to no effect
- Akt phosphorylation (pAkt (S473); MOLM13, 0.5 and 1 μM, 10% FBS stimulation): inhibits Akt phosphorylation
- Akt phosphorylation (pAkt (S473); Mv4-11, 0.5 and 1 μM, not significant at 0.5 μM): inhibits Akt phosphorylation
- pAkt (pAkt (S473); OCI-M1, 1 μM): slight and significant inhibition of pAkt
- Akt phosphorylation (pAkt (S473); OCI-M1, 0.5 and 1 μM): close to no effect
- SLFN11 expression (totSLFN11; Kasumi, 2.5 μM, 24 and 48 hours): no significant differences
- SLFN11 expression (totSLFN11; Kasumi, 2.5 μM, 72 hours): significant increase of SLFN11 expression
- total protein expression of SLFN11 (totSLFN11; MOLM13, 0.3 μM, 24, 48 and 72 hours): significant reduction
- total protein expression of SLFN11 (totSLFN11; Mv4-11, 0.1 uM, 72 hours): significantly reduced
- total protein expression of SLFN11 (totSLFN11; [1]): significant reduction
- SLFN11 expression (totSLFN11; OCI-AML5, 2.5 μM, 24 and 48 hours): no significant differences
- SLFN11 expression (totSLFN11; OCI-AML5, 2.5 μM, 72 hours): significant increase of SLFN11 expression
- IC50 (OCI-M1 cells): 1800 nM
